Measurements taken from PubChem BioAssay AID2060627 (Molecular Pharmacology Branch, DTP, NCI, 2025).
Values joined by “and” are separate entries in the source; they are usually repeats but may differ in a detail not shown here. Equal entries are not always repeated.

Tested on: 156681-154-R-J1-PDC complex spheroid viability
Assay: Anticancer human tumor 156681-154-R-J1-PDC patient-derived melanoma cell line growth inhibition [CLK]
Conditions: for viability, T/C: stronger effect = lower value; active = viability on the fitted dose curve at most 10% of control; inactive = the rest
Summary of the method: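 Multi-cell-type spheroids combined patient-derived tumor cells with HUVEC endothelial cells and human mesenchymal stem cells. Paired agents were dosed in half-log steps down from about clinical Cmax, or from 10 microM where Cmax was unknown.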

[1] = curve of first compound, second compound 0.0316 µM
[2] = curve of first compound, second compound 0.1 µM
[3] = curve of first compound, second compound 0.316 µM
[4] = curve of first compound, second compound 1 µM
[5] = curve of first compound, second compound 3.16 µM
[6] = curve of first compound, second compound 10 µM
[7] = second compound 0.0316 µM, first compound 0.0316 µM
[8] = second compound 0.0316 µM, first compound 0.1 µM
[9] = second compound 0.0316 µM, first compound 0.316 µM
[10] = second compound 0.0316 µM, first compound 1 µM
[11] = second compound 0.0316 µM, first compound 3.16 µM
[12] = second compound 0.0316 µM, first compound 10 µM
[13] = second compound 0.1 µM, first compound 0.0316 µM
[14] = second compound 0.1 µM, first compound 0.1 µM
[15] = second compound 0.1 µM, first compound 0.316 µM
[16] = second compound 0.1 µM, first compound 1 µM
[17] = second compound 0.1 µM, first compound 3.16 µM
[18] = second compound 0.1 µM, first compound 10 µM
[19] = second compound 0.316 µM, first compound 0.0316 µM
[20] = second compound 0.316 µM, first compound 0.1 µM
[21] = second compound 0.316 µM, first compound 0.316 µM
[22] = second compound 0.316 µM, first compound 1 µM
[23] = second compound 0.316 µM, first compound 3.16 µM
[24] = second compound 0.316 µM, first compound 10 µM
[25] = second compound 1 µM, first compound 0.0316 µM
[26] = second compound 1 µM, first compound 0.1 µM
[27] = second compound 1 µM, first compound 0.316 µM
[28] = second compound 1 µM, first compound 1 µM
[29] = second compound 1 µM, first compound 3.16 µM
[30] = second compound 1 µM, first compound 10 µM
[31] = second compound 3.16 µM, first compound 0.0316 µM
[32] = second compound 3.16 µM, first compound 0.1 µM
[33] = second compound 3.16 µM, first compound 0.316 µM
[34] = second compound 3.16 µM, first compound 1 µM
[35] = second compound 3.16 µM, first compound 3.16 µM
[36] = second compound 3.16 µM, first compound 10 µM
[37] = second compound 10 µM, first compound 0.0316 µM
[38] = second compound 10 µM, first compound 0.1 µM
[39] = second compound 10 µM, first compound 0.316 µM
[40] = second compound 10 µM, first compound 1 µM
[41] = second compound 10 µM, first compound 3.16 µM
[42] = second compound 10 µM, first compound 10 µM
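Note: spheroids exposed to the agents for seven days.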
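Throughout, for viability, T/C: 100% = DMSO vehicle control viability.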

O=c1[nH]cc(F)c(=O)[nH]1 + CN1CCN(c2cc(C(=O)Nc3cc4cc(-c5cnn(C)c5)ccc4cn3)ccn2)CC1
7520 nM: IC50 [1]
< 31.6 nM: IC50 [3] | IC50 [4] | IC50 [5] | IC50 [6]
4680 nM: IC50 [2]
inactive: viability, T/C [7] 106% | viability, T/C [8] 104% | viability, T/C [9] 96.2% | viability, T/C [10] 113% | viability, T/C [11] 74.2% | viability, T/C [12] 42% | viability, T/C [13] 99.3% | viability, T/C [14] 77.6% | viability, T/C [15] 83.7% | viability, T/C [16] 84.6% | viability, T/C [17] 57.8% | viability, T/C [18] 34.9% | viability, T/C [19] 17.3% | viability, T/C [20] 21.2% | viability, T/C [21] 21.1% | viability, T/C [22] 20.9% | viability, T/C [23] 20.4% | viability, T/C [24] 16.1%
active: viability, T/C [25] 0.17% | viability, T/C [26] 1.7% | viability, T/C [27] 0.17% | viability, T/C [28] 1.14% | viability, T/C [29] 3.07% | viability, T/C [30] 0.39% | viability, T/C [31] 0.09% | viability, T/C [32] 3.26% | viability, T/C [33] 2.64% | viability, T/C [34] 0.08% | viability, T/C [35] 3.66% | viability, T/C [36] 5.79% | viability, T/C [37] 0.09% | viability, T/C [38] 1.51% | viability, T/C [39] 0.76% | viability, T/C [40] 2.73% | viability, T/C [41] 1.68% | viability, T/C [42] 3.54%

CC(Nc1ccc2c(c1)OCCn1cc(N3C(=O)OCC3C(F)F)nc1-2)C(N)=O (stereo unspecified)
inactive: viability, T/C (compound 0.0316 µM) 67.3% and 70.1% | viability, T/C (compound 0.1 µM) 65.7% and 55.4% | viability, T/C (compound 0.316 µM) 53.8% and 52.7% | viability, T/C (compound 1 µM) 39.9% and 37.6% | viability, T/C (compound 3.16 µM) 32.3% and 33.9% | viability, T/C (compound 10 µM) 23.5% and 19.5%
460 nM and 305 nM: IC50 (curve of compound)

CC(CO)NC(=O)c1cc(-c2ccc(Cl)cc2)nn(-c2cnn(C)c2)c1=O (stereo unspecified) + CN1CCN(c2cc(C(=O)Nc3cc4cc(-c5cnn(C)c5)ccc4cn3)ccn2)CC1
active: viability, T/C [25] 0.34% | viability, T/C [26] 0.99% | viability, T/C [27] 0.36% | viability, T/C [28] 1.64% | viability, T/C [29] 1.51% | viability, T/C [30] 2.77% | viability, T/C [31] 0.25% | viability, T/C [32] 0.92% | viability, T/C [33] 0.29% | viability, T/C [34] 1.68% | viability, T/C [35] 0.58% | viability, T/C [36] 0.23% | viability, T/C [37] 0.29% | viability, T/C [38] 0.66% | viability, T/C [39] 0.9% | viability, T/C [40] 1.31% | viability, T/C [41] 0.62% | viability, T/C [42] 1.4%
inactive: viability, T/C [7] 97.7% | viability, T/C [8] 107% | viability, T/C [9] 103% | viability, T/C [10] 114% | viability, T/C [11] 84.2% | viability, T/C [12] 59.6% | viability, T/C [13] 99.3% | viability, T/C [14] 94.7% | viability, T/C [15] 87.5% | viability, T/C [16] 81.8% | viability, T/C [17] 67% | viability, T/C [18] 56% | viability, T/C [19] 26.8% | viability, T/C [20] 38.3% | viability, T/C [21] 34.2% | viability, T/C [22] 29.2% | viability, T/C [23] 29.1% | viability, T/C [24] 21.5%
< 31.6 nM: IC50 [3] | IC50 [4] | IC50 [5] | IC50 [6]
> 10000 nM: IC50 [1] | IC50 [2]
